Tests used:
CePRMT9 = test: Radioisotope-based assay (SDS-PAGE, fluorography, densitometry), CePRMT9; format: biochemical, Caenorhabditis elegans; conditions: substrate GST-CeSFTB-2 (99–248), 25 °C
Method: (§1) Based on these outcomes, we resolved to explore the effect on the capability to inhibit PRMT9 enzymatic activity of further reduction of the distance between the pharmacophoric moieties. […] After the experiment was repeated with 100, 250, and 500 μM concentrations of each inhibitor, half inhibition was observed only at a concentration of roughly 250 μM (Figure 4d).
(§2) […]. The experiments were performed as reported in the Experimental procedures section. GST-HsPRMT9 (a) and GST-HsPRMT7 (b) were incubated with human GST-SF3B2 (401–550) peptide or recombinant HsH2B, respectively (1 μg of enzyme, 5 μg of substrate), 0.14 μM [^3H]SAM, and the indicated concentrations of tested compounds at the corresponding optimal reaction temperature (37 °C for HsPRMT9, 15 °C for HsPRMT7). C. elegans GST-tagged enzymes PRMT9 (c) and PRMT7 (d) were incubated with GST-CeSFTB-2 (99–248) fragment or recombinant HsH2B, respectively (1 μg of enzyme, 5 μg of substrate), 0.14 μM [^3H]SAM, and the indicated concentrations of tested compounds at the corresponding optimal reaction temperature (25 °C for CePRMT9, 15 °C for CePRMT7). After SDS-PAGE, the gels were treated as previously described[48] and densitometry analysis was done using ImageJ software, and data was plotted as normalized activity to the no inhibitor controls.
(§3) Human PRMT9, C. elegans PRMT9, human PRMT7, and C. elegans PRMT7 plasmids were sequenced, expressed in E. coli as GST-fusion proteins, and purified as previously described.[48] Substrates were also sequenced and purified as described [human GST-SF3B2 (401–550);[13]C. elegans SFTB-2;[48] human histone H2B (New England Biolabs, M2505S)]. Xenopus laevis histone H2B was expressed in E. coli and purified similarly to what was previously reported by Luger et al.[72]
(§4) Reactions consisting of approximately 1 μg of enzyme (human or C. elegans GST-tagged enzymes PRMT9 and PRMT7), reacted with approximately 5 μg of substrate [for human PRMT9, human GST-SF3B2 401–550 fragment; C. elegans PRMT9 with C. elegans GST-SFTB-2 (99–248) fragment, or recombinant human histone H2B from New England Biolabs (M2505S)], were incubated for the indicated time in reaction buffer {50 mM potassium HEPES buffer, 10 mM NaCl, 1 mM dithiothreitol (DTT), pH 8.0 with 0.7 μM S-adenosyl-L-[methyl-^3H]methionine (^3H-AdoMet, PerkinElmer Life Sciences, 82.7 Ci/mmol, 0.55 mCi/mL in 10 mM H2SO4/EtOH [9:1 (v/v)])} in a final reaction volume of 60 μL. Each reaction was incubated at the corresponding optimal reaction temperature (37 °C for human PRMT9, 25 °C for C. elegans PRMT9, and 15 °C for C. elegans and human PRMT7 enzymes. MTA was dissolved in water, and a wavelength scan was taken to determine the final concentration using the extinction coefficient. The final concentrations used are indicated in the figure legends. […]. EML734, EML736, and EML709 were also dissolved in DMSO, and further dilutions were made in DMSO for the working stocks. For controls, no inhibitor reactions were created by the addition of the respective solvent (water for MTA and DMSO for EPZ015666 and EML inhibitors).
(§5) After the reaction incubations with the various concentrations of inhibitors, the reactions were quenched by adding 0.2 volume of 5× SDS sample loading buffer, and subsequently, the reactions were run on a 12.6% polyacrylamide Tris gel. To collect the radioactive signal, the gels were then treated in the same way as previously described.[48]
(§6) After various exposures were collected to ensure linear detection, densitometry analysis was done using ImageJ software, and data were plotted as normalized activity to the no inhibitor controls.

GST-HsPRMT9 = molecular target: T1, GST-HsPRMT9 (Homo sapiens, UniProt Q6P2P2); test: Radioisotope-based assay (SDS-PAGE, fluorography, densitometry), HsPRMT9; format: biochemical; conditions: substrate GST-SF3B2 (401–550), 37 °C, read-out: % HsPRMT9 residual activity
T1 construct: made in house; host or cells: E. coli
T1 sequence (Q6P2P2 1-845): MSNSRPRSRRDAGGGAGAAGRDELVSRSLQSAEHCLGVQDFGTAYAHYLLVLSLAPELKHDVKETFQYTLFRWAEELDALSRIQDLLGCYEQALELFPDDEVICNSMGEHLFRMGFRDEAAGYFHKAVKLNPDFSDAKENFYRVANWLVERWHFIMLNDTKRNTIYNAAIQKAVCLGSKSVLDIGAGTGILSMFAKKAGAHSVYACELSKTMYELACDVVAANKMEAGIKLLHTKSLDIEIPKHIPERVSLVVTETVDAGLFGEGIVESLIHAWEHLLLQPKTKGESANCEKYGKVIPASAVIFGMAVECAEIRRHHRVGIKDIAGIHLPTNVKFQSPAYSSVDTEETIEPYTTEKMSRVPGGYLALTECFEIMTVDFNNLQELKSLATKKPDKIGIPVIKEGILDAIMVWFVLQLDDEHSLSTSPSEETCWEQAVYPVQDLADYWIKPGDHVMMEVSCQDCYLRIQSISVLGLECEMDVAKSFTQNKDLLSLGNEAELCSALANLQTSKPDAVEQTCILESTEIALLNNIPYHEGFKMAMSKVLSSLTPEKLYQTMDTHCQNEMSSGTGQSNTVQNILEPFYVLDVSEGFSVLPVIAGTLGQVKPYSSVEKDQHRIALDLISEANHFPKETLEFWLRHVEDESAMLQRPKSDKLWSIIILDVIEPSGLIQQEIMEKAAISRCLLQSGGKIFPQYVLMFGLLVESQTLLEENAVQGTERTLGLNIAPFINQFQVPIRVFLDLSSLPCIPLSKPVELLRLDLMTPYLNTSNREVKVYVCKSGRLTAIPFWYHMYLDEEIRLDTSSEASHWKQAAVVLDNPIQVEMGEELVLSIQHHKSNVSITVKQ
Method: as §1, §2, §3, §4, §5, §6

| remaining activity at 5 µM (GST-HsPRMT9) | remaining activity at 25 µM (GST-HsPRMT9) | remaining activity at 50 µM (GST-HsPRMT9) | remaining activity at 100 µM (GST-HsPRMT9) | SMILES | % CePRMT9 residual activity (CePRMT9; 5 uM) | % CePRMT9 residual activity (CePRMT9; 25 uM) | % CePRMT9 residual activity (CePRMT9; 50 uM) | % CePRMT9 residual activity (CePRMT9; 100 uM) |
| --- | --- | --- | --- | --- | --- | --- | --- | --- |
| 30.4% | 3.42% | 1.37% | 0.3% | COC(=O)c1cc(O)c2cc(NC(=O)NCCCNC(=N)NC[C@H]3O[C@@H](n4cnc5c(N)ncnc54)[C@H](O)[C@@H]3O)ccc2c1 [1a] | 106.32% | 67.30% | 31.52% | 19.47% |
| 46% | 13.8% | 6.15% | 1.64% | COC(=O)c1cc(O)c2cc(NC(=O)NCCCCNC(=N)NC[C@H]3O[C@@H](n4cnc5c(N)ncnc54)[C@H](O)[C@@H]3O)ccc2c1 [1b] | 114.11% | 95.80% | 52.55% | 39.17% |
| 32% | 6.5% | 0.52% | 0.34% | COC(=O)c1cc(O)c2cc(NC(=O)NCCCCCNC(=N)NC[C@H]3O[C@@H](n4cnc5c(N)ncnc54)[C@H](O)[C@@H]3O)ccc2c1 [1c] | 110.89% | 81.62% | 50.08% | 12.31% |
